Results reported in PubChem BioAssay AID256 (DTP/NCI, 2004).
Values joined by “and” are separate entries in the source; they are usually repeats but may differ in a detail not shown here. Identical values can stand only once. Inconclusive results and toxic doses are left out.

System: CD2F1 mice, L1210 leukemia ip, survival T/C
Experiment: NCI In Vivo Anticancer Drug Screen. Data for tumor model L1210 Leukemia (intraperitoneal) in CD2F1 (CDF1) mice
Conditions: higher = longer survival
In short: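 In this screen, transplantable tumors were grown in mice given either the compound or its vehicle. Results were expressed as the treated measurement relative to the control measurement.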

[1] = endpoint: mean survival time, dose: 100.0 mg/kg/injection, schedule: Q04DX003 (ip), vehicle: Klucel (hydroxypropylcellulose) (HPC)
[2] = endpoint: mean survival time, dose: 200.0 mg/kg/injection, schedule: Q04DX003 (ip), vehicle: Klucel (hydroxypropylcellulose) (HPC)
[3] = endpoint: mean survival time, dose: 100.0 mg/kg/injection, schedule: Q04DX003 (ip), vehicle: saline with Tween-80
[4] = endpoint: mean survival time, dose: 200.0 mg/kg/injection, schedule: Q04DX003 (ip), vehicle: saline with Tween-80
[5] = endpoint: mean survival time, dose: 400.0 mg/kg/injection, schedule: Q04DX003 (ip), vehicle: saline with Tween-80

With `Cc1c(Cl)cccc1N=Cc1ccc2c(c1)OCO2` the T/C [1] was 102 % of control, the T/C [2] was 96 % of control and the T/C (endpoint: mean survival time, dose: 400.0 mg/kg/injection, schedule: Q04DX003 (ip), vehicle: Klucel (hydroxypropylcellulose) (HPC)) was 102 % of control.
For `O=C(O)CCN1CCCc2ccccc21`, the T/C (endpoint: mean survival time, dose: 100.0 mg/kg/injection, schedule: Q01DX009 (ip), vehicle: other) was 109 % of control, the T/C (endpoint: mean survival time, dose: 100.0 mg/kg/injection, schedule: Q04DX003 (ip), vehicle: other) was 95 % of control and the T/C (endpoint: mean survival time, dose: 200.0 mg/kg/injection, schedule: Q01DX009 (ip), vehicle: other) was 103 % of control. For the same compound, the T/C (endpoint: mean survival time, dose: 200.0 mg/kg/injection, schedule: Q04DX003 (ip), vehicle: other) was 107 % of control and the T/C (endpoint: mean survival time, dose: 400.0 mg/kg/injection, schedule: Q04DX003 (ip), vehicle: other) was 96 % of control.
For `[Cl][Pt+2][Cl].[NH-]c1ccc(C(=O)c2ccccc2)cc1[NH-]`, the T/C (endpoint: mean survival time, dose: 2.5 mg/kg/injection, schedule: Q01DX009 (ip), vehicle: saline with Tween-80) was 105 % of control, the T/C (endpoint: mean survival time, dose: 5.0 mg/kg/injection, schedule: Q01DX009 (ip), vehicle: saline with Tween-80) was 105 % of control and the T/C (endpoint: mean survival time, dose: 10.0 mg/kg/injection, schedule: Q01DX009 (ip), vehicle: saline with Tween-80) was 106 % of control. The T/C (endpoint: mean survival time, dose: 20.0 mg/kg/injection, schedule: Q01DX009 (ip), vehicle: saline with Tween-80) was 100 % of control and 106 % of control, the T/C (endpoint: mean survival time, dose: 40.0 mg/kg/injection, schedule: Q01DX009 (ip), vehicle: saline with Tween-80) was 102 % of control and 105 % of control and the T/C (endpoint: mean survival time, dose: 80.0 mg/kg/injection, schedule: Q01DX009 (ip), vehicle: saline with Tween-80) was 101 % of control. The T/C (endpoint: mean survival time, dose: 160.0 mg/kg/injection, schedule: Q01DX009 (ip), vehicle: saline with Tween-80) was 100 % of control and the T/C (endpoint: mean survival time, dose: 320.0 mg/kg/injection, schedule: Q01DX009 (ip), vehicle: saline with Tween-80) was 100 % of control.
`CC(=O)N(C)N=Nc1ccc(Cl)cc1` was tested, and the T/C (endpoint: mean survival time, dose: 25.0 mg/kg/injection, schedule: Q04DX003 (ip), vehicle: Klucel (hydroxypropylcellulose) (HPC)) was 109 % of control, the T/C (endpoint: mean survival time, dose: 50.0 mg/kg/injection, schedule: Q04DX003 (ip), vehicle: Klucel (hydroxypropylcellulose) (HPC)) was 105 % of control and the T/C [1] was 103 % of control. The T/C [2] was 100 % of control.
For `CC(=O)OC1OC(C)C(OC(C)=O)C(OC(C)=O)C1NC(=O)N(CCCl)N=O` (configuration not stated), the T/C (endpoint: mean survival time, dose: 17.0 mg/kg/injection, schedule: Q01DX001 (ip), vehicle: saline with Tween-80) was 508 % of control, the T/C (endpoint: mean survival time, dose: 26.0 mg/kg/injection, schedule: Q01DX001 (ip), vehicle: saline with Tween-80) was 535 % of control and the T/C (endpoint: mean survival time, dose: 40.0 mg/kg/injection, schedule: Q01DX001 (ip), vehicle: saline with Tween-80) was 389 % of control.
With `CC(C)c1ccc(C(=O)C(O)c2ccc(C(C)C)cc2)cc1` (configuration not stated) the T/C [3] was 102 % of control, the T/C [4] was 102 % of control and the T/C [5] was 95 % of control.
With `O=C(Nc1ccccc1[N+](=O)[O-])Oc1ccccc1` the T/C (endpoint: mean survival time, dose: 75.0 mg/kg/injection, schedule: Q04DX002 (ip), vehicle: saline with Tween-80) was 96 % of control, the T/C (endpoint: mean survival time, dose: 150.0 mg/kg/injection, schedule: Q04DX002 (ip), vehicle: saline with Tween-80) was 96 % of control and the T/C (endpoint: mean survival time, dose: 300.0 mg/kg/injection, schedule: Q04DX002 (ip), vehicle: saline with Tween-80) was 96 % of control.
In the case of `Nc1cc2c(c[n+](CCO)c3ccccc23)c2ccccc12`, the T/C (endpoint: mean survival time, dose: 12.5 mg/kg/injection, schedule: Q04DX003 (ip), vehicle: water) is reported as 103 % of control, the T/C (endpoint: mean survival time, dose: 25.0 mg/kg/injection, schedule: Q04DX003 (ip), vehicle: water) is reported as 104 % of control and the T/C (endpoint: mean survival time, dose: 50.0 mg/kg/injection, schedule: Q04DX003 (ip), vehicle: water) is reported as 110 % of control. The T/C (endpoint: mean survival time, dose: 100.0 mg/kg/injection, schedule: Q04DX003 (ip), vehicle: water) was 120 % of control and the T/C (endpoint: mean survival time, dose: 200.0 mg/kg/injection, schedule: Q04DX003 (ip), vehicle: water) was 120 % of control.
With `[Co+2].[NH-]c1ccccc1C(=O)O.[NH-]c1ccccc1C(=O)O` the T/C [3] was 89 % of control, the T/C [4] was 91 % of control and the T/C [5] was 91 % of control.
In the case of `O=NN(CCF)C(=O)NC1C(O)CCCC1O` (configuration not stated), the T/C (endpoint: median survival time, dose: 1.25 mg/kg/injection, schedule: Q01DX001 (ip), vehicle: saline) is reported as 120 % of control, the T/C (endpoint: median survival time, dose: 2.5 mg/kg/injection, schedule: Q01DX001 (ip), vehicle: saline) is reported as 116 % of control and the T/C (endpoint: median survival time, dose: 5.0 mg/kg/injection, schedule: Q01DX001 (ip), vehicle: saline) is reported as 160 % of control. The T/C (endpoint: median survival time, dose: 5.0 mg/kg/injection, schedule: Q04DX002 (ip), vehicle: saline) was 178 % of control, the T/C (endpoint: median survival time, dose: 10.0 mg/kg/injection, schedule: Q01DX001 (ip), vehicle: saline) was 168 % of control and the T/C (endpoint: median survival time, dose: 10.0 mg/kg/injection, schedule: Q04DX002 (ip), vehicle: saline) was 231 % of control and 232 % of control. For the same compound, the T/C (endpoint: median survival time, dose: 20.0 mg/kg/injection, schedule: Q01DX001 (ip), vehicle: saline) was 337 % of control, the T/C (endpoint: median survival time, dose: 20.0 mg/kg/injection, schedule: Q04DX002 (ip), vehicle: saline) was 361 % of control and 365 % of control and the T/C (endpoint: median survival time, dose: 40.0 mg/kg/injection, schedule: Q01DX001 (ip), vehicle: saline) was 337 % of control. For the same compound, the T/C (endpoint: median survival time, dose: 40.0 mg/kg/injection, schedule: Q04DX002 (ip), vehicle: saline) was 182 % of control and 361 % of control.
